Here are results for one molecule from patent US11103486B2, “Treatment of autoimmune disorders and infections using antagonists of SGK1 activity” (THE JOHNS HOPKINS UNIVERSITY, priority 2011, dated 2021).

The experiment has as its system JunB. Kind of experiment: JunB protein levels by immunoblot of nuclear extracts of CD4+ T cells activated under Th2 skewing conditions. The experiment is classed as cell-based, mice. The conditions noted are these: T-SGK1−/− CD4+ T cells activated under Th2 skewing conditions; MG132 added during the final 2 hours of stimulation. As for the experimental part:
(11A) Nuclear and cytoplasmic extracts from Wt and T-SGK1−/− CD4+ T cells. Cells were purified by magnetic separation and stimulated for 72 hours in vitro with anti-CD3 and anti-CD28 and either (Th1) IL-12, IFN-γ, and anti-IL-4, or (Th2) IL-4, anti-IFN-γ, and anti-IL-12p40 skewing conditions. Cells were lysed and separated into nuclear and cytoplasmic fractions. Nuclear extracts were blotted for the expression of JunB, and Lamin B is included as a loading control. Cytosolic fractions were blotted to measure the E3 ligase activity of NEDD4L (S342), and actin is included as a loading control. (11B) Nuclear extract of Wt and T-SGK1−/− treated with MG132. As in A, but with the addition of the proteasome inhibitor MG-132 during the final 2 hours of stimulation. Nuclear fractions were blotted for JunB. (11C) Immunoprecipitates (IPs) of JunB from Wt and T-SGK1−/− CD4+ T cells skewed with IL4 and treated with MG132. As in B, but nuclear fractions were subject to IP with JunB antibody. […] Fold induction of long and short isoforms of TCF1 over no stimulation control, as analyzed by quantitative polymerase chain reaction. […] Cells were restimulated for 4 hours with phorbol 12-myristate 13-acetate (PMA) and ionomycin in the presence of a protein transport inhibitor, and analyzed for production of IFN-γ by intracellular staining. […]
For orientation: In western blotting, separated proteins are transferred to a membrane and probed.

The structures appear in SMILES notation. Where a SMILES comes first, the peptide text is derived from it. The star is where a group is joined. Cbz = O=C(OCc1ccccc1)*

With `CC(C)C[C@@H](C=O)NC(=O)[C@H](CC(C)C)NC(=O)[C@H](CC(C)C)NC(=O)OCc1ccccc1` [MG132] (Cbz-Leu-Leu-Leu-aldehyde), the “JunB levels (immunoblot, nuclear fraction)” value is listed as “JunB levels increased”.
